Experimental data as given in ChEMBL document CHEMBL1126348, “1,3,4-trisubstituted pyrrolidinones as scaffolds for construction of peptidomimetic cholecystokinin antagonists” (Bioorg Med Chem Lett, 1992).

Assays:
[1] = biological target: T1, Cholecystokinin receptor type A (Rattus norvegicus, UniProt P30551); test: Displacement of [125I]CCK-OP radioligand from Cholecystokinin type A receptor in rat pancreatic acinar membrane binding assay; type: cell membranes
T1 sequence (P30551 whole entry): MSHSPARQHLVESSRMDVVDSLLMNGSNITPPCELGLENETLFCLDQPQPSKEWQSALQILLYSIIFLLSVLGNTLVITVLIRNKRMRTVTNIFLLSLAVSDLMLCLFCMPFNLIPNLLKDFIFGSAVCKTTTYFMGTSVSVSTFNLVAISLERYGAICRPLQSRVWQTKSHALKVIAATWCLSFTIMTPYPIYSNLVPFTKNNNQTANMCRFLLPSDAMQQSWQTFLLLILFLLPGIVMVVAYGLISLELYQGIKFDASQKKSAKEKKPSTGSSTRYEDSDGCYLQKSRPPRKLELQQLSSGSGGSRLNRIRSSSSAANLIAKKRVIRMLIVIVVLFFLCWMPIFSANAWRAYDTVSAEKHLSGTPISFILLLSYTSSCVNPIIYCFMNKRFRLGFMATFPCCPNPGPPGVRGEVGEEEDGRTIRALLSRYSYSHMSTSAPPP

[2] = biological target: T2, Cholecystokinin receptor type A (Cavia porcellus, UniProt Q63931); test: Compound was tested for competitive blocking of guinea pig ileal smooth muscle strip contraction to cholecystokinin-8 (CCK-8) receptor; type: functional; conditions: read-out: pA2 (converted)
T2 sequence (Q63931 whole entry): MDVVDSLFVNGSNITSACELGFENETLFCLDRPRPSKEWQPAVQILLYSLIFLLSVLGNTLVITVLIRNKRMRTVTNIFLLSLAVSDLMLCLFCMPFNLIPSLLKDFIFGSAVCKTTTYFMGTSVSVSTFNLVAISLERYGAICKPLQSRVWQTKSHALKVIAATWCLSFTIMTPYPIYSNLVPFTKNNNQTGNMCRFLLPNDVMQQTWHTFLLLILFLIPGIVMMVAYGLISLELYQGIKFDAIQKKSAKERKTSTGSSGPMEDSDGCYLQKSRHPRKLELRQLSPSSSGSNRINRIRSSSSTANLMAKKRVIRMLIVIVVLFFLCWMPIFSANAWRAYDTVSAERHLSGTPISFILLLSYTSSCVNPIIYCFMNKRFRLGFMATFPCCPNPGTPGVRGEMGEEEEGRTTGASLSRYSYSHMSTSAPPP

[3] = biological target: T3, Cholecystokinin receptor type A (Rattus norvegicus) (UniProt P30551); test: Effective dose of compound causing reversal of cholecystokinin-8 (CCK-8) receptor induced delayed gastric emptying in the rat when administered intraperitoneally; type: functional; conditions: Stomach
T3 sequence (whole entry): T1 sequence (P30551 whole entry)

[4] = biological target: T3, Cholecystokinin receptor type A (Rattus norvegicus); test: Effective dose of compound causing reversal of cholecystokinin-8 (CCK-8) receptor induced delayed gastric emptying in the rat when administered orally; type: functional; conditions: Stomach

Row | Structure (SMILES) | IC50 [1] [nM] | other results
1 | O=C(N[C@@H]1C(=O)N(c2ccccc2F)C[C@@H]1C(=O)O)c1cnc2ccccc2c1 | 170 | 
2 | O=C(N[C@@H]1C(=O)N(c2ccccc2F)C[C@@H]1C(=O)O)c1ccc2ccccc2c1 | 62 | 
3 | O=C(N[C@@H]1C(=O)N(Cc2ccccc2)C[C@@H]1C(=O)O)c1ccc2ccccc2c1 | 1290 | 
4 | CCCCCN(CCCCC)C(=O)C(CCC(=O)O)NC(=O)c1ccc(Cl)c(Cl)c1 (centres undefined) [LORGLUMIDE] | 22 | 
5 | CC(C)(C)OC(=O)[C@H]1CN(c2ccccc2)C(=O)[C@H]1NC(=O)c1ccc2ccccc2c1 | > 1000 | 

Now from value to compound, other results behind:

Row | IC50 [1] [nM] | Structure (SMILES) | other results
6 | 16 | O=C(N[C@@H]1C(=O)N(c2ccccc2)C[C@@H]1C(=O)O)c1ccc2ccccc2c1 | Kb [2]: 6.31 nM; ED50 [3]: 0.41 mg/kg; ED50 [4]: 1.8 mg/kg
7 | 360 | O=C(N[C@H]1C(=O)N(c2ccccc2)C[C@@H]1C(=O)O)c1cc2ccccc2[nH]1 | 
8 | > 1000 | O=C(O)[C@H]1CN(c2ccccc2)C(=O)[C@H]1NS(=O)(=O)c1ccc2ccccc2c1 | 
9 | 290 | O=C(N[C@H]1C(=O)N(c2ccccc2)C[C@@H]1C(=O)O)c1ccc2ccccc2c1 | 
10 | 18.5 | O=C(N[C@@H]1C(=O)N(c2ccccc2)C[C@@H]1C(=O)O)c1cc2ccccc2[nH]1 | 
11 | 550 | O=C(N[C@@H]1C(=O)N(Cc2ccccc2)C[C@@H]1C(=O)O)c1cc2ccccc2[nH]1 | 
